Experiments:
[1] = target: T1, MLCK (Homo sapiens, UniProt Q9H1R3); assay: Millipore kinase panel; assay type: biochemical; settings: read-out: % Control
T1 construct: purchased Millipore KinaseProfiler (kinases); Cerep (receptors and ion channels)

[2] = target: T2, SRPK2 (Homo sapiens, UniProt P78362); assay: Millipore kinase panel; assay type: biochemical; settings: read-out: % Control
T2 construct: purchased Millipore KinaseProfiler (kinases); Cerep (receptors and ion channels)

[3] = target: T3, RSK4 (Homo sapiens, UniProt Q9UK32); assay: Millipore kinase panel; assay type: biochemical; settings: read-out: % Control
T3 construct: purchased Millipore KinaseProfiler (kinases); Cerep (receptors and ion channels)

[4] = target: T4, EPHA8 (Homo sapiens, UniProt P29322); assay: Millipore kinase panel; assay type: biochemical; settings: read-out: % Control
T4 construct: purchased Millipore KinaseProfiler (kinases); Cerep (receptors and ion channels)

[5] = target: T5, H2 (h) (Homo sapiens, UniProt P25021); assay: CEREP binding panel; settings: antagonist radioligand, read-out: % Inhibition of Control Specific Binding
T5 construct: purchased Millipore KinaseProfiler (kinases); Cerep (receptors and ion channels)

[6] = target: T6, WNK2 (Homo sapiens, UniProt Q9Y3S1); assay: Millipore kinase panel; assay type: biochemical; settings: read-out: % Control
T6 construct: purchased Millipore KinaseProfiler (kinases); Cerep (receptors and ion channels)
T6 sequence (Q9Y3S1 whole entry): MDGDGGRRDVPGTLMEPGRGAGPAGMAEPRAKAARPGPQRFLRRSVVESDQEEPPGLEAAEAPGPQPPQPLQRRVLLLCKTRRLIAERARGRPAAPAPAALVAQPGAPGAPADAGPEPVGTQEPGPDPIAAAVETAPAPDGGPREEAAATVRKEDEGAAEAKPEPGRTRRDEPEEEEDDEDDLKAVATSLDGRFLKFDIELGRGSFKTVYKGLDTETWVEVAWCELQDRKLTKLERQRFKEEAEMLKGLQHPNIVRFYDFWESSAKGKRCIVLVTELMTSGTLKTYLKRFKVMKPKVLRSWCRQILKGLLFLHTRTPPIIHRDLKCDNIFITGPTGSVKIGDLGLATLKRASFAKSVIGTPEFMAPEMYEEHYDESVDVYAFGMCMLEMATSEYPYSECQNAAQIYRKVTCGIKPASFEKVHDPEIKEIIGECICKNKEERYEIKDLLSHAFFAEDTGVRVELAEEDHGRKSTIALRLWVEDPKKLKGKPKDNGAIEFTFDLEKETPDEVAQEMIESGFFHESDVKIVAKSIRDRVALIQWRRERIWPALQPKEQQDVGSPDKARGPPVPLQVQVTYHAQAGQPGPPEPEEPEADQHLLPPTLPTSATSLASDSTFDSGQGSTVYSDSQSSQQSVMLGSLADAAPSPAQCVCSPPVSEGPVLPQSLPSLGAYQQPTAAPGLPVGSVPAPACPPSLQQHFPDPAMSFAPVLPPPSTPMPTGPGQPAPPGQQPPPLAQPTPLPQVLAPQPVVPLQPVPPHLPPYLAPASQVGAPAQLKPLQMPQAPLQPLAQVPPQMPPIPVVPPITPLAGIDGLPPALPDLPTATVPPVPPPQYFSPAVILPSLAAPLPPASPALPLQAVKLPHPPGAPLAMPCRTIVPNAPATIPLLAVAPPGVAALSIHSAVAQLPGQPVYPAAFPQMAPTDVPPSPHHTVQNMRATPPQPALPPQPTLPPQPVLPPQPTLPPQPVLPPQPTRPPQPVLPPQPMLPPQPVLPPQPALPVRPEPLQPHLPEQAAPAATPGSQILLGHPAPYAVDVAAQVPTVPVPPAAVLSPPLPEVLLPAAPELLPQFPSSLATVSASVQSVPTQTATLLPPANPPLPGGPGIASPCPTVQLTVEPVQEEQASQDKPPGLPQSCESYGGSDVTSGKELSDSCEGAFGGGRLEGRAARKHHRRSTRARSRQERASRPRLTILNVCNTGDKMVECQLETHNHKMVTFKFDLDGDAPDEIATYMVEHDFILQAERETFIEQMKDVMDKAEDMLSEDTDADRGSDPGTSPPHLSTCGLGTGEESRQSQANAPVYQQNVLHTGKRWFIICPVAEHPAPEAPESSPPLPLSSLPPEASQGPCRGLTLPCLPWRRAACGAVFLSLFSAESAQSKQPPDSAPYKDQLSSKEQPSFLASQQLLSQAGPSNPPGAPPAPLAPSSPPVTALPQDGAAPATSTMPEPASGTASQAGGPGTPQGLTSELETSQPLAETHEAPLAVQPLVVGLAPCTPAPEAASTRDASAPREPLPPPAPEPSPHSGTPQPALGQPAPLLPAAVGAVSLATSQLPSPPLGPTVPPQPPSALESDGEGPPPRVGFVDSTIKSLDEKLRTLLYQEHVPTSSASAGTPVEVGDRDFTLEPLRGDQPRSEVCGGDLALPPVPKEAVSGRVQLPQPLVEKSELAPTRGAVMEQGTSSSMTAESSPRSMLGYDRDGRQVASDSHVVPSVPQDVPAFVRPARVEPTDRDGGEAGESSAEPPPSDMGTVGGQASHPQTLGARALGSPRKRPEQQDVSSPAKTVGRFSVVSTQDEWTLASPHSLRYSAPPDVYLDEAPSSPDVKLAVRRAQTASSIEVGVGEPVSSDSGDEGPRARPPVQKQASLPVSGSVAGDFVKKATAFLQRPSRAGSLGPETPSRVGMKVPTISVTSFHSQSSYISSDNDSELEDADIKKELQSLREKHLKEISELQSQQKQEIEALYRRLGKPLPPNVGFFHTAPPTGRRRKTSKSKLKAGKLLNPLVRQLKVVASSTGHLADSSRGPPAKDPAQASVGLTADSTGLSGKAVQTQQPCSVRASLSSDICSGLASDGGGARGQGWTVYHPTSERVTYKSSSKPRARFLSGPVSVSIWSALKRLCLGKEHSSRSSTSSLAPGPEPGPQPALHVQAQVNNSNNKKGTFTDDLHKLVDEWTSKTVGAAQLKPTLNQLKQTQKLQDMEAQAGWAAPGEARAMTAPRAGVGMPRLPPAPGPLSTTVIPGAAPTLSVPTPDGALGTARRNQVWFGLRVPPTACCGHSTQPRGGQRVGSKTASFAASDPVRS

[7] = target: T7, RSE (Homo sapiens, UniProt Q06418); assay: Millipore kinase panel; assay type: biochemical; settings: read-out: % Control
T7 construct: purchased Millipore KinaseProfiler (kinases); Cerep (receptors and ion channels)

[8] = target: T8, EGFR (Homo sapiens, UniProt P00533); assay: Millipore kinase panel; assay type: biochemical; settings: read-out: % Control
T8 construct: purchased Millipore KinaseProfiler (kinases); Cerep (receptors and ion channels)

[9] = target: T9, FER (Homo sapiens, UniProt P16591); assay: Millipore kinase panel; assay type: biochemical; settings: read-out: % Control
T9 construct: purchased Millipore KinaseProfiler (kinases); Cerep (receptors and ion channels)
T9 sequence (P16591 whole entry): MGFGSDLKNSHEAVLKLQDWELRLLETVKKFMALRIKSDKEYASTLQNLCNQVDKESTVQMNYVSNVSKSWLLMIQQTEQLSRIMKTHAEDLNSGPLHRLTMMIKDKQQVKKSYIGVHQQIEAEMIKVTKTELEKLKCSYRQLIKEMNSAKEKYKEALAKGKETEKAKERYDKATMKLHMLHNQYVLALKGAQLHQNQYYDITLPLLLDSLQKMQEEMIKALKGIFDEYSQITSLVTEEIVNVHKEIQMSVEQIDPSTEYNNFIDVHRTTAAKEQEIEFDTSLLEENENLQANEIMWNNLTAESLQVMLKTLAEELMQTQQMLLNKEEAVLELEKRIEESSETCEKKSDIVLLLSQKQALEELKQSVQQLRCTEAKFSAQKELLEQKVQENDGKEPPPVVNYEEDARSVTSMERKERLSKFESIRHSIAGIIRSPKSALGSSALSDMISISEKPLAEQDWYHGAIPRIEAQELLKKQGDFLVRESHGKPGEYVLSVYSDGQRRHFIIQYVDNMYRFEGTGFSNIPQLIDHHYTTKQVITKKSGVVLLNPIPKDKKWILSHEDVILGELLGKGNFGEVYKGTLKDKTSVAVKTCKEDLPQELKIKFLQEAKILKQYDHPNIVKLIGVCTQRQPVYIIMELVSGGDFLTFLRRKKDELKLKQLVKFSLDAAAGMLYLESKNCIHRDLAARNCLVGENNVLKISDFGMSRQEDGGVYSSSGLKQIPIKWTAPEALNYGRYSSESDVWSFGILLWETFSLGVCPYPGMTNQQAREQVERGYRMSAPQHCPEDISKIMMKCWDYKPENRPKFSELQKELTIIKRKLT

[10] = target: T10, SAPK2A (Homo sapiens, UniProt Q16539); assay: Millipore kinase panel; assay type: biochemical; settings: read-out: % Control
T10 construct: purchased Millipore KinaseProfiler (kinases); Cerep (receptors and ion channels)

[11] = target: T11, DMPK (Homo sapiens, UniProt Q09013); assay: Millipore kinase panel; assay type: biochemical; settings: read-out: % Control
T11 construct: purchased Millipore KinaseProfiler (kinases); Cerep (receptors and ion channels)

[12] = target: T12, ALK (Homo sapiens, UniProt Q9UM73); assay: Millipore kinase panel; assay type: biochemical; settings: read-out: % Control
T12 construct: purchased Millipore KinaseProfiler (kinases); Cerep (receptors and ion channels)

[13] = target: T13, AXL (Homo sapiens, UniProt P30530); assay: Millipore kinase panel; assay type: biochemical; settings: read-out: % Control
T13 construct: purchased Millipore KinaseProfiler (kinases); Cerep (receptors and ion channels)

[14] = target: T14, CDK2/CYCLINA (Homo sapiens, UniProt P24941); assay: Millipore kinase panel; assay type: biochemical; settings: read-out: % Control
T14 construct: purchased Millipore KinaseProfiler (kinases); Cerep (receptors and ion channels)

[15] = target: T15, PDK1 (Homo sapiens, UniProt O15530); assay: Millipore kinase panel; assay type: biochemical; settings: read-out: % Control
T15 construct: purchased Millipore KinaseProfiler (kinases); Cerep (receptors and ion channels)

[16] = target: T16, KDR (Homo sapiens, UniProt P35968); assay: Millipore kinase panel; assay type: biochemical; settings: read-out: % Control
T16 construct: purchased Millipore KinaseProfiler (kinases); Cerep (receptors and ion channels)
T16 sequence (P35968 20-1356): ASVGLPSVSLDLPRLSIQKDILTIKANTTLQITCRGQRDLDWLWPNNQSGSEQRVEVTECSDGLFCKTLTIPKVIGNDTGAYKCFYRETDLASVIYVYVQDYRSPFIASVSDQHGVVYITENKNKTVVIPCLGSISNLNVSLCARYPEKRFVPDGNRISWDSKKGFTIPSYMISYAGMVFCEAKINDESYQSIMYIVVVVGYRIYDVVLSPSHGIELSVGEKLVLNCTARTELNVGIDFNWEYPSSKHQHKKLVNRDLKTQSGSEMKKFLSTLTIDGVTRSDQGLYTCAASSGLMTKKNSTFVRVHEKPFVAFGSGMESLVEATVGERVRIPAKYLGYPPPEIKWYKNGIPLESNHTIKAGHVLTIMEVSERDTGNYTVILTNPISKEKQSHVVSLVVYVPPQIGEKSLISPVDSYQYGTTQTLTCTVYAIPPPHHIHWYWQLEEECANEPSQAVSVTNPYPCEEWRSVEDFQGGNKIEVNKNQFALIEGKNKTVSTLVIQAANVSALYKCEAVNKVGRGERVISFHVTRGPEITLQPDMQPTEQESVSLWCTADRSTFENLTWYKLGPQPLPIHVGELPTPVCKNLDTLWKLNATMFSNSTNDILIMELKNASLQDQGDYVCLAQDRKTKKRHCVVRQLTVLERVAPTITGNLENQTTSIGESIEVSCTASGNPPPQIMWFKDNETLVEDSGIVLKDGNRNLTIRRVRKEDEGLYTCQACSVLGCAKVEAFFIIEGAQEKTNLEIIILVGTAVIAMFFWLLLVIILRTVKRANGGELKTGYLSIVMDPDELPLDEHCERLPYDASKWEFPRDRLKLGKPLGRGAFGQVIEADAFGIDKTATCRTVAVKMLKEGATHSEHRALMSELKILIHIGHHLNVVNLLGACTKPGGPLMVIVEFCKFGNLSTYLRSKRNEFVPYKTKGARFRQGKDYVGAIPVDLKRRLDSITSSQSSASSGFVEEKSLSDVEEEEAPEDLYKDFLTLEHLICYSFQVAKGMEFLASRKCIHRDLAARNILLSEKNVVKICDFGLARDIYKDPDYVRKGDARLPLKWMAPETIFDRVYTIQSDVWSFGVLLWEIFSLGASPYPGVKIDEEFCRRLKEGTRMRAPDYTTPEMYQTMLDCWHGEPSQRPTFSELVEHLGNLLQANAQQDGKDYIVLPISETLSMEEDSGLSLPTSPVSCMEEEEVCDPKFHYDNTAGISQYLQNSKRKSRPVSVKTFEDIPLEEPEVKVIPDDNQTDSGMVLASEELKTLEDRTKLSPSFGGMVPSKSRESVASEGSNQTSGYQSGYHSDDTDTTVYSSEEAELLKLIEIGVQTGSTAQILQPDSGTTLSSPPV

[17] = target: T17, PLK3 (Homo sapiens, UniProt Q9H4B4); assay: Millipore kinase panel; assay type: biochemical; settings: read-out: % Control
T17 construct: purchased Millipore KinaseProfiler (kinases); Cerep (receptors and ion channels)

[18] = target: T18, FES (Homo sapiens, UniProt P07332); assay: Millipore kinase panel; assay type: biochemical; settings: read-out: % Control
T18 construct: purchased Millipore KinaseProfiler (kinases); Cerep (receptors and ion channels)

[19] = target: T19, ARK5 (Homo sapiens, UniProt O60285); assay: Millipore kinase panel; assay type: biochemical; settings: read-out: % Control
T19 construct: purchased Millipore KinaseProfiler (kinases); Cerep (receptors and ion channels)

[20] = target: T20, MST3 (Homo sapiens, UniProt Q9Y6E0); assay: Millipore kinase panel; assay type: biochemical; settings: read-out: % Control
T20 construct: purchased Millipore KinaseProfiler (kinases); Cerep (receptors and ion channels)

[21] = target: T21, FGFR3 (Homo sapiens, UniProt P22607); assay: Millipore kinase panel; assay type: biochemical; settings: read-out: % Control
T21 construct: purchased Millipore KinaseProfiler (kinases); Cerep (receptors and ion channels)

[22] = target: T22, A2A (h) (Homo sapiens, UniProt P29274); assay: CEREP binding panel; settings: agonist radioligand, read-out: % Inhibition of Control Specific Binding
T22 construct: purchased Millipore KinaseProfiler (kinases); Cerep (receptors and ion channels)

[23] = target: T23, 5-HT6 (h) (Homo sapiens, UniProt P50406); assay: CEREP binding panel; settings: agonist radioligand, read-out: % Inhibition of Control Specific Binding
T23 construct: purchased Millipore KinaseProfiler (kinases); Cerep (receptors and ion channels)

[24] = test system: Na+ channel (site 2); assay: CEREP binding panel; settings: 10 μM, antagonist radioligand
[25] = target: T24, PAK2 (Homo sapiens, UniProt Q13177); assay: Millipore kinase panel; assay type: biochemical; settings: read-out: % Control
T24 construct: purchased Millipore KinaseProfiler (kinases); Cerep (receptors and ion channels)

[26] = target: T25, CLK2 (Homo sapiens, UniProt P49760); assay: Millipore kinase panel; assay type: biochemical; settings: read-out: % Control
T25 construct: purchased Millipore KinaseProfiler (kinases); Cerep (receptors and ion channels)

[27] = target: T26, LCK (Homo sapiens, UniProt P06239); assay: Millipore kinase panel; assay type: biochemical; settings: read-out: % Control
T26 construct: purchased Millipore

[28] = target: T27, SGK (Homo sapiens, UniProt O00141); assay: Millipore kinase panel; assay type: biochemical; settings: read-out: % Control
T27 construct: purchased Millipore KinaseProfiler (kinases); Cerep (receptors and ion channels)

[29] = target: T28, HIPK1 (Homo sapiens, UniProt Q86Z02); assay: Millipore kinase panel; assay type: biochemical; settings: read-out: % Control
T28 construct: purchased Millipore KinaseProfiler (kinases); Cerep (receptors and ion channels)

[30] = target: T29, AURKB (Homo sapiens, UniProt Q96GD4); assay: Millipore kinase panel; assay type: biochemical; settings: read-out: % Control
T29 construct: purchased Millipore KinaseProfiler (kinases); Cerep (receptors and ion channels)

[31] = test system: MKK4; assay: Millipore kinase panel; assay type: biochemical; settings: 1 μM, ATP at Km
[32] = target: T30, PRK2 (Homo sapiens, UniProt Q16513); assay: Millipore kinase panel; assay type: biochemical; settings: read-out: % Control
T30 construct: purchased Millipore KinaseProfiler (kinases); Cerep (receptors and ion channels)

[33] = target: T31, A3 (h) (Homo sapiens, UniProt P0DMS8); assay: CEREP binding panel; settings: agonist radioligand, read-out: % Inhibition of Control Specific Binding
T31 construct: purchased Millipore KinaseProfiler (kinases); Cerep (receptors and ion channels)

[34] = target: T32, SAPK2B (Homo sapiens, UniProt Q15759); assay: Millipore kinase panel; assay type: biochemical; settings: read-out: % Control
T32 construct: purchased Millipore KinaseProfiler (kinases); Cerep (receptors and ion channels)

[35] = target: T33, ROCK-I (Homo sapiens, UniProt Q13464); assay: Millipore kinase panel; assay type: biochemical; settings: read-out: % Control
T33 construct: purchased Millipore KinaseProfiler (kinases); Cerep (receptors and ion channels)

[36] = target: T34, LIMK1 (Homo sapiens, UniProt P53667); assay: Millipore kinase panel; assay type: biochemical; settings: read-out: % Control
T34 construct: purchased Millipore KinaseProfiler (kinases); Cerep (receptors and ion channels)

[37] = target: T35, TXK (Homo sapiens, UniProt P42681); assay: Millipore kinase panel; assay type: biochemical; settings: read-out: % Control
T35 construct: purchased Millipore KinaseProfiler (kinases); Cerep (receptors and ion channels)

[38] = target: T36, MSK1 (Homo sapiens, UniProt O75582); assay: Millipore kinase panel; assay type: biochemical; settings: read-out: % Control
T36 construct: purchased Millipore KinaseProfiler (kinases); Cerep (receptors and ion channels)

[39] = target: T37, CXCR2 (IL-8B) (h) (Homo sapiens, UniProt P25025); assay: CEREP binding panel; settings: agonist radioligand, read-out: % Inhibition of Control Specific Binding
T37 construct: purchased Millipore KinaseProfiler (kinases); Cerep (receptors and ion channels)

[40] = target: T38, MEK1 (Homo sapiens, UniProt Q02750); assay: Millipore kinase panel; assay type: biochemical; settings: read-out: % Control
T38 construct: purchased Millipore KinaseProfiler (kinases); Cerep (receptors and ion channels)

[41] = target: T39, EPHB4 (Homo sapiens, UniProt P54760); assay: Millipore kinase panel; assay type: biochemical; settings: read-out: % Control
T39 construct: purchased Millipore KinaseProfiler (kinases); Cerep (receptors and ion channels)

[42] = target: T40, GRK6 (Homo sapiens, UniProt P43250); assay: Millipore kinase panel; assay type: biochemical; settings: read-out: % Control
T40 construct: purchased Millipore KinaseProfiler (kinases); Cerep (receptors and ion channels)
T40 sequence (P43250 whole entry): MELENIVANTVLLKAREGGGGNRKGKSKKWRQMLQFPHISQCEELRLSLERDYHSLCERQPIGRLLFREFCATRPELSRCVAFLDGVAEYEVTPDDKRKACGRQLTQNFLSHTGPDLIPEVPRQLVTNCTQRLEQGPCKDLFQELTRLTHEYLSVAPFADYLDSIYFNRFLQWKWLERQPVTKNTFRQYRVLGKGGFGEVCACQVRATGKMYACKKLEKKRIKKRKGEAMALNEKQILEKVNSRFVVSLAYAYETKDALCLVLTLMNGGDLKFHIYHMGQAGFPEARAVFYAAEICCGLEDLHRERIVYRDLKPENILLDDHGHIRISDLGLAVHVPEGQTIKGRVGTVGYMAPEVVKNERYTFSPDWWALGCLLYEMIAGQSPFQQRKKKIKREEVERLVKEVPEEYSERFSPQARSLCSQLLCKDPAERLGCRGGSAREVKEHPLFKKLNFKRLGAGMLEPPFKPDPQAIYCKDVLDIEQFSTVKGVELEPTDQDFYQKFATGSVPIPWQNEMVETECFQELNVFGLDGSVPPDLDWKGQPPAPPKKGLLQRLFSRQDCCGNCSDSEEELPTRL

[43] = target: T41, PKD2 (Homo sapiens, UniProt Q9BZL6); assay: Millipore kinase panel; assay type: biochemical; settings: read-out: % Control
T41 construct: purchased Millipore KinaseProfiler (kinases); Cerep (receptors and ion channels)

[44] = target: T42, CDK6/CYCLIND3 (Homo sapiens, UniProt Q00534); assay: Millipore kinase panel; assay type: biochemical; settings: read-out: % Control
T42 construct: purchased Millipore KinaseProfiler (kinases); Cerep (receptors and ion channels)

In the case of O=C1NCCC12CCN(c1c(Cl)cncc1-c1ccc(N3CCOCC3)cc1)CC2 [Compound 44, 8-(3-Chloro-5-(4-morpholin-4-ylphenyl)pyridin-4-yl)-2,8-diazaspiro[4.5]decan-1-one], the remaining activity at 1 µM [1] is reported as 1%, the remaining activity at 1 µM [2] is reported as 10% and the remaining activity at 1 µM [3] is reported as 2%. It also gave a remaining activity at 1 µM [4] of -3%, an inhibition at 10 µM [5] of -16% and a remaining activity at 1 µM [6] of -4%. For the same compound, the remaining activity at 1 µM [7] was 7%, the remaining activity at 1 µM [8] was 5% and the remaining activity at 1 µM [9] was 11%. For the same compound, the remaining activity at 1 µM [10] was -1%, the remaining activity at 1 µM [11] was -7% and the remaining activity at 1 µM [12] was -6%. For the same compound, the remaining activity at 1 µM [13] was -12%, the remaining activity at 1 µM [14] was -9% and the remaining activity at 1 µM [15] was 3%. For the same compound, the remaining activity at 1 µM [16] was 21%, the remaining activity at 1 µM [17] was -17% and the remaining activity at 1 µM [18] was 14%. It also gave a remaining activity at 1 µM [19] of -2%, a remaining activity at 1 µM [20] of 34% and a remaining activity at 1 µM [21] of 10%. The inhibition at 10 µM [22] was 4%, the inhibition at 10 µM [23] was -5% and the “% Inhibition of Control Specific Binding” value [24] was 15%. For the same compound, the remaining activity at 1 µM [25] was 12%, the remaining activity at 1 µM [26] was -10% and the remaining activity at 1 µM [27] was 13%. For the same compound, the remaining activity at 1 µM [28] was 16%, the remaining activity at 1 µM [29] was 7% and the remaining activity at 1 µM [30] was -1%. The “% Control” value [31] was 46%, the remaining activity at 1 µM [32] was 17% and the inhibition at 10 µM [33] was -7%. The remaining activity at 1 µM [34] was 4%, the remaining activity at 1 µM [35] was -7% and the remaining activity at 1 µM [36] was -3%. It also gave a remaining activity at 1 µM [37] of 4%, a remaining activity at 1 µM [38] of 18% and an inhibition at 10 µM [39] of -2%. For the same compound, the remaining activity at 1 µM [40] was -3%, the remaining activity at 1 µM [41] was 4% and the remaining activity at 1 µM [42] was -1%. The remaining activity at 1 µM [43] was 0% and the remaining activity at 1 µM [44] was 7%.

Reference: PMC4767141, “Discovery of Potent, Orally Bioavailable, Small-Molecule Inhibitors of WNT Signaling from a Cell-Based Pathway Screen” (Journal of Medicinal Chemistry, 2015)
